Consider 49 compounds from patent publication US20240228491A1, “METHIONINE ADENOSYLTRANSFERASE INHIBITOR, PREPARATION METHOD THEREFOR AND APPLICATION THEREOF” (SCINNOHUB PHARMACEUTICAL CO., LTD., priority 2021, published 2024).

One experiment concerns the target MAT2a (Homo sapiens (Human), UniProt P31153). The experiment in a line: MAT2a enzymatic activity test (colorimetric assay). Type of experiment: biochemical. Particulars: OD620, 150 min reaction, read-out: IC50 against MAT2a. The method, then: The Colorimetric assay method was used to detect the IC50 value of the tested compounds on MAT2a.
The specific steps were as follows: The compounds having the test starling concentration of 1 μM or 10 μM were diluted into 10 concentration points in a 3-fold gradient. 250 nL of the solutions of the compounds to be tested with 10 different concentrations were taken and added into a 384 well plate for later use. 20 μg/mL of MAT2a enzyme solution was prepared with Assay buffer (50 mM Tris, 50 mM KCl, 10 mM MgCl2, 0.05% polyoxyethylene lauryl ether, pH 8.0). 15 μL of the MAT2a enzyme solution at 20 μg/mL was add into the wells of the compounds to be tested at different concentrations; and 15 μL of Assay buffer was added into the negative control well. An incubation was carried out for 15 minutes after shaking for mixing well. A mixed substrate solution (comprising 400 μM ATP and 600 μM L-Methionine) was prepared with Assay buffer. 10 μL of the mixed substrate solution was added to the positive control well, the compound to be tested well, and the negative control well, respectively, and the reaction began, for a reaction time of 150 min. Then, 50 μL of the reaction stop solution (BIOMOL Green™ Reagent Enzo lifesciences, Cargo No. BML-AK111-1000) was added to stop the reaction, followed by being centrifuged at 1000 rpm for 60 s and then being incubated for 15 min. OD620 was read and data were processed.
By using the log value of the concentration as the X-axis and the inhibition % as the Y-axis, the IC50 value of each compound against enzyme activity was obtained through employing the log(inhibitor) vs. response-Variable slope fitting dose-effect curve of the analysis software GraphPad Prism 5.

A further experiment has as its system HCT116 MTAP-/- cells. In words: Activity test of HCT116 MTAP gene homozygous deletion cells (CellTiter-Glo). The experiment is classed as cell-based. Particulars: Homo sapiens, HCT-116, 120 h incubation, read-out: HCT116 MTAP-/- Cell IC50. As to the method:
On day 1, cell seeding: after digestion of the cells with trypsin, the cells were resuspended to the desired density with the complete medium (RPMI-1640 supplemented with 10% FBS; the brand of FBS is EXCELL, Cat. No. FND500; the brand of RPMI-1640 is ATCC, Cat. No. 30-2001), mixed evenly, and added into the 96-well plate at 100 μL/well with a cell density of 1000-3000 cells per well. The plate was put back to the incubator for the adherent growth of cells. On day 2, the addition of the compounds to be tested: before the addition of the compounds, the cells were starved with serum-free medium for 4 h, then the complete medium containing the corresponding concentration of compounds was added thereto, and the cells were incubated at 37° C., 5% CO2 for 120 h. On day 7, the cell culture plates were taken out from incubator and equilibrated to room temperature. 50 μL of CellTiter-Glo (Promega Company, Cat. No. G7571) reagent was added per well, and the cells were fully lysed by shaking at room temperature for 2 min, and then incubated for another 60 min to detect the fluorescence intensity. Calculation formula:
% Inhibition=100−(signal of the well with the compound to be tested−signal of the well with only medium and free of cells)/(signal of the well with cells but without addition of the compound−signal of the well with only medium and free of cells)×100.
The fitting dose-effect curve of the analysis software GraphPad Prism 5 was used to give IC50 values of the individual compounds against cellular activity.

The structures appear in SMILES notation.

MAT2a, sequence (P31153 whole entry): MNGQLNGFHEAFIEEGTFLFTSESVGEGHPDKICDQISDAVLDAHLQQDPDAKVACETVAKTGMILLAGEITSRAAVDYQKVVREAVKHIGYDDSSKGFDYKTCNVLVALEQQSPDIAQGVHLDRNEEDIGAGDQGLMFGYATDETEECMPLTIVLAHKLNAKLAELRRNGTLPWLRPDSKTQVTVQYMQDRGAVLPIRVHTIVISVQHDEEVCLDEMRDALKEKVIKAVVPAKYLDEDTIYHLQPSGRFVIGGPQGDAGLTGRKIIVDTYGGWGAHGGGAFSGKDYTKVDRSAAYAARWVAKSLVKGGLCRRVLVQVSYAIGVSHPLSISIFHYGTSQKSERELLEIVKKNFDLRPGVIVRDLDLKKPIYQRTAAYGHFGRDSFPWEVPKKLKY

As to `CNc1c(-c2cccs2)c(=O)n(-c2ccccc2)c2nc(C(F)(F)F)ccc12` [Example 10], at MAT2a, the IC50 amounted to 20.9 nM.

Turning to `Nc1c(-c2ccc3nccnc3c2)c(=O)n(-c2ccc(Br)cc2)c2nc(C(F)(F)F)ccc12` [Example 83], the IC50 was determined as 17.2 nM on MAT2a and 9.12 nM in the experiment on HCT116 MTAP-/- cells.

Take `COc1cc(-c2c(N)c3ccc(C(F)(F)F)nc3n(-c3ccc(C)cc3)c2=O)ccn1` [Example 87]: the figures for the IC50 on MAT2a and in the experiment on HCT116 MTAP-/- cells were 15.4 nM and 9.77 nM, respectively.

`Cc1ccc(-c2c(N)c3ccc(C(F)(F)F)nc3n(-c3ccc(Cl)cc3)c2=O)o1` [Example 14]: the IC50 at MAT2a was 22.9 nM.

As to `CNc1c(-c2ncco2)c(=O)n(-c2ccccc2)c2nc(C(F)(F)F)ccc12` [Example 7, 4-(methylamino)-3-(oxazol-2-yl)-1-phenyl-7-(trifluoromethyl)-1,8-naphthyridin-2(1H)-one], the IC50 was 37.9 nM on MAT2a and 800 nM in the experiment on HCT116 MTAP-/- cells.

As for `CNc1c(-c2cncs2)c(=O)n(-c2ccc(Cl)cc2)c2nc(C(F)(F)F)ccc12` [Example 12], the IC50 on MAT2a is 25.8 nM.

As for `Nc1c(-c2ccn3cncc3c2)c(=O)n(-c2ccc(Cl)cc2)c2nc(C(F)(F)F)ccc12` [Example 71], at MAT2a, the IC50 turned out to be 18.5 nM.

`CNc1c(-c2ccoc2)c(=O)n(-c2ccccc2)c2nc(C(F)(F)F)ccc12` [Example 9]: the IC50 at MAT2a was 21.4 nM.

Consider `N#Cc1cc(-c2c(N)c3ccc(C(F)(F)F)nc3n(-c3ccc(Cl)cc3)c2=O)ccn1` [Example 76], for which the IC50 on MAT2a was 16.3 nM.

In the case of `Cn1cc(-c2c(N)c3ccc(C(F)(F)F)nc3n(-c3ccc(Cl)c(F)c3)c2=O)ccc1=O` [Example 74], at MAT2a, the IC50 amounted to 16.4 nM.

Consider `Nc1c(-c2ccn3ncnc3c2)c(=O)n(-c2ccc(Cl)cc2)c2nc(C(F)(F)F)ccc12` [Example 60], for which the IC50 at MAT2a came out at 17 nM.

As for `COc1ccc(-c2c(N)c3ccc(C(F)(F)F)nc3n(-c3ccc(Br)cc3)c2=O)nc1` [Example 85], at MAT2a, the IC50 came out at 15.2 nM.

Consider `COc1ccc(-c2c(N)c3ccc(C(F)(F)F)nc3n(-c3ccc(Cl)cc3)c2=O)nc1` [Example 61], for which the IC50 on MAT2a came to 17 nM.

In the case of `CS(=O)(=O)CCn1cc2cc(-c3c(N)c4ccc(C(F)(F)F)nc4n(-c4ccc(Cl)cc4)c3=O)ccc2n1` [Example 51], the IC50 at MAT2a was determined as 16.2 nM.

For `CNc1c(-c2ccccc2)c(=O)n(-c2ccccc2)c2nc(C(F)(F)F)ccc12` [Example 13], the IC50 at MAT2a was determined as 32 nM; with HCT116 MTAP-/- cells it was 638 nM.

As to `COc1ccc(-c2c(N)c3ccc(C(F)(F)F)nc3n(-c3ccc(Br)cc3)c2=O)cn1` [Example 93], the IC50 on MAT2a turned out to be 16.3 nM.

Consider `Nc1c(-c2ccc3cncnc3c2)c(=O)n(-c2ccc(Cl)cc2)c2nc(C(F)(F)F)ccc12` [Example 70], for which, on MAT2a, the IC50 was determined as 30.5 nM.

Take `N#Cc1ccc(-c2c(N)c3ccc(C(F)(F)F)nc3n(-c3ccc(Cl)cc3)c2=O)cc1` [Example 40]: on MAT2a, the IC50 was determined as 26.3 nM.

Take `Cn1cc2cc(-c3c(N)c4ccc(C(F)(F)F)nc4n(-c4ccc(Br)cc4)c3=O)ccc2n1` [Example 92]: the IC50 at MAT2a worked out at 17.4 nM.

For the compound `Cc1ccc(-n2c(=O)c(-c3ccnc(C)c3)c(N)c3ccc(C(F)(F)F)nc32)cc1` [Example 91], the IC50 at MAT2a is 18 nM.

Turning to `Nc1c(-c2ccc3cccnc3c2)c(=O)n(-c2ccc(Cl)cc2)c2nc(C(F)(F)F)ccc12` [Example 18], the IC50 at MAT2a is 51.4 nM.

Take `Cc1cc(-c2c(N)c3ccc(C(F)(F)F)nc3n(-c3ccc(Cl)cc3)c2=O)ccn1` [Example 75]: the IC50 at MAT2a came to 13.8 nM.

Take `Nc1c(-c2ccc(=O)n(CC(F)(F)F)c2)c(=O)n(-c2ccc(Cl)cc2)c2nc(C(F)(F)F)ccc12` [Example 57]: the IC50 at MAT2a was 17.1 nM.

As to `Nc1c(-c2ccnc(C(F)(F)F)c2)c(=O)n(-c2ccc(Cl)cc2)c2nc(C(F)(F)F)ccc12` [Example 77], on MAT2a, the IC50 was 13.9 nM.

`Nc1c(-c2cncs2)c(=O)n(-c2ccc(Cl)cc2)c2nc(C(F)(F)F)ccc12` [Example 33]: the IC50 at MAT2a stood at 20.2 nM.

As for `Cn1cccc1-c1c(N)c2ccc(C(F)(F)F)nc2n(-c2ccc(Cl)cc2)c1=O` [Example 28], the IC50 at MAT2a worked out at 25.3 nM.

On to `Cn1ncc2cc(-c3c(N)c4ccc(C(F)(F)F)nc4n(-c4ccc(Cl)cc4)c3=O)ccc21` [Example 66], for which the IC50 on MAT2a is 16 nM.

As for `Nc1c(-c2ccc3[nH]cnc3c2)c(=O)n(-c2ccc(Cl)cc2)c2nc(C(F)(F)F)ccc12` [Example 50], at MAT2a, the IC50 came to 17.2 nM.

`Cc1ccc(-n2c(=O)c(-c3ccc4nn(C)cc4c3)c(N)c3ccc(C(F)(F)F)nc32)cc1` [Example 89]: at MAT2a, the IC50 is 16.5 nM.

`Nc1c(-c2ccccc2)c(=O)n(-c2ccc(Cl)cc2)c2nc(C(F)(F)F)ccc12` [Example 65]: the IC50 at MAT2a is 15.2 nM.

As to `Nc1c(-c2ccc3ccccc3c2)c(=O)n(-c2ccc(Cl)cc2)c2nc(C(F)(F)F)ccc12` [Example 58], the IC50 at MAT2a was determined as 17.4 nM.

Take `Nc1c(-c2ccc3c(c2)OCO3)c(=O)n(-c2ccc(Br)cc2)c2nc(C(F)(F)F)ccc12` [Example 86]: the IC50 on MAT2a amounted to 15.9 nM.

Consider `Cc1ccc(-n2c(=O)c(-c3ccn4ncnc4c3)c(N)c3ccc(C(F)(F)F)nc32)cc1` [Example 90], for which the IC50 at MAT2a was found to be 16.9 nM.

As to `Cc1ccc(-n2c(=O)c(-n3cccn3)c(N)c3ccc(C(F)(F)F)nc32)cc1` [Example 81], on MAT2a, the IC50 is 17 nM.

Turning to `Nc1c(-c2ccc3nn[nH]c3c2)c(=O)n(-c2ccc(Cl)cc2)c2nc(C(F)(F)F)ccc12` [Example 62, 4-amino-3-(1H-benzo[d][1,2,3]triazol-6-yl)-1-(4-chlorophenyl)-7-(trifluoromethyl)-1,8-naphthyridin-2(1H)-one], the IC50 on MAT2a came to 16.1 nM.

In the case of `CNc1c(-c2nccs2)c(=O)n(-c2ccccc2)c2nc(C(F)(F)F)ccc12` [Example 2, 4-(methylamino)-1-phenyl-3-(thiazol-2-yl)-7-(trifluoromethyl)-1,8-naphthyridin-2(1H)-one], the IC50 at MAT2a is 26.1 nM.

Regarding `Nc1c(-c2ccc3nncn3c2)c(=O)n(-c2ccc(Cl)cc2)c2nc(C(F)(F)F)ccc12` [Example 32], the IC50 at MAT2a stood at 14.9 nM.

In the case of `Cn1c(N)nc2ccc(-c3c(N)c4ccc(C(F)(F)F)nc4n(-c4ccc(Cl)cc4)c3=O)cc21` [Example 37], the IC50 on MAT2a came out at 20.2 nM.

In the case of `Cc1ccc(-n2c(=O)c(-n3cncn3)c(N)c3ccc(C(F)(F)F)nc32)cc1` [Example 82], the IC50 at MAT2a was 16 nM.

As for `CNc1c(-c2ncc[nH]2)c(=O)n(-c2ccccc2)c2nc(C(F)(F)F)ccc12` [Example 8, 3-(1H-imidazol-2-yl)-4-(methylamino)-1-phenyl-7-(trifluoromethyl)-1,8-naphthyridin-2(1H)-one], the IC50 on MAT2a came out at 8.7 nM.

Consider `Cn1cc(-c2c(N)c3ccc(C(F)(F)F)nc3n(-c3ccc(Cl)cc3F)c2=O)ccc1=O` [Example 78], for which, at MAT2a, the IC50 turned out to be 14 nM.

Regarding `Cc1ccc(-n2c(=O)c(-c3ccc4c(c3)OCCO4)c(N)c3ccc(C(F)(F)F)nc32)cc1` [Example 88], the IC50 on MAT2a came to 16 nM.

With `Nc1c(-c2cc3nccnc3cn2)c(=O)n(-c2ccc(Cl)cc2)c2nc(C(F)(F)F)ccc12` [Example 59], the IC50 at MAT2a was found to be 25.4 nM.

Take `Nc1c(-c2ccc(F)cc2)c(=O)n(-c2ccc(Br)cc2)c2nc(C(F)(F)F)ccc12` [Example 84]: on MAT2a, the IC50 was found to be 28.2 nM.

On to `Nc1c(-n2ccnc2)c(=O)n(-c2ccc(Cl)cc2)c2nc(C(F)(F)F)ccc12` [Example 35], for which, on MAT2a, the IC50 stood at 14.9 nM.

As for `CN(C)CCn1ncc2cc(-c3c(N)c4ccc(C(F)(F)F)nc4n(-c4ccc(Cl)cc4)c3=O)ccc21` [Example 73], the IC50 at MAT2a turned out to be 18.8 nM.

`CN(C)CCn1cc2cc(-c3c(N)c4ccc(C(F)(F)F)nc4n(-c4ccc(Cl)cc4)c3=O)ccc2n1` [Example 72]: the IC50 at MAT2a was found to be 16.5 nM.

Turning to `CNc1c(-c2ccco2)c(=O)n(-c2ccccc2)c2nc(C(F)(F)F)ccc12` [Example 11], on MAT2a, the IC50 stood at 21.4 nM.

In the case of `Cc1cc(-c2c(N)c3ccc(C(F)(F)F)nc3n(-c3ccc(Cl)cc3)c2=O)on1` [Example 16], on MAT2a, the IC50 is 41.9 nM.
